Laboratory results reported in ChEMBL document CHEMBL1240338, “BIBF 1120: triple angiokinase inhibitor with sustained receptor blockade and good antitumor efficacy” (Cancer Res, 2008).
pEC50, pIC50: −log10 of the molar value.

Columns and labels:
HUVEC [1] = assay: Induction of apoptosis in HUVEC at 50 nM by TUNEL assay (reference value: 2%); type: cell-based; settings: human, 0.05 µM
[2] = Antitumor activity against rat GS-9L cells implanted in syngeneic F344 Fischer rat assessed as inhibition of tumor growth at 50 mg/kg, po qd for 5 days relative to control
HeLa = assay: Antiangiogenic activity in human HeLa assessed as inhibition of cell proliferation by [3H]thymidine incorporation assay in presence of fetal calf serum; type: functional, cell-based
FaDu [3] = assay: Antiangiogenic activity in human FADU assessed as inhibition of cell proliferation by [3H]thymidine incorporation assay in presence of fetal calf serum; type: functional, cell-based
[4] = Antitumor activity against rat GS-9L cells implanted in syngeneic F344 Fischer rat assessed as inhibition of tumor growth at 25 mg/kg, po qd for 5 days relative to control
CAKI-1 [5] = assay: Antitumor activity against human Caki1 cells xenografted in NMRI nu/nu mouse assessed as tumor growth at 10 mg/kg, po qd for 5 days relative to control
[6] = Plasma concentration in NMRI nu/nu mouse at 50 mg/kg, po after 1 hr; type: ADME, organism-based; design: dose 50 mg/kg, route oral
FaDu [7] = assay: Antitumor activity against human FADU cells xenografted in NMRI nu/nu mouse assessed as reduction of PDGFR-beta-positive mural cells at 100 mg/kg, po qd for 5 days by PDGFR-beta immunohistochemistry image analysis relative to control; design: scale not given: the % may be the effect or the level left
[8] = Antiangiogenic activity in BRP assessed as inhibition of PDGF BB-induced cell proliferation by [3H]thymidine incorporation assay; type: functional; settings: Bos taurus
CAKI-1 [9] = assay: Antitumor activity against human Caki1 cells xenografted in NMRI nu/nu mouse assessed as tumor growth at 100 mg/kg, po qd for 5 days relative to control
[10] = Antitumor activity against rat GS-9L cells implanted in syngeneic F344 Fischer rat assessed as inhibition of tumor growth at 10 mg/kg, po qd for 5 days relative to control
Mus musculus [11] = assay: Toxicity in human FADU cells xenografted in NMRI nu/nu mouse assessed weight loss at 100 mg/kg, po qd for 5 days; type: organism-based; design: dose 100 mg/kg, route oral; settings: in vivo, 120 h
FaDu [12] = assay: Antitumor activity against human FADU cells xenografted in NMRI nu/nu mouse assessed as reduction of tumor vessel density at 100 mg/kg, po qd for 5 days by Meca 32 immunohistochemistry image analysis relative to control; design: scale not given: the % may be the effect or the level left
HUVEC [13] = assay: Antiangiogenic activity in HUVEC assessed as inhibition of VEGF-induced cell proliferation by [3H]thymidine incorporation assay; type: functional, cell-based; settings: Homo sapiens
Mus musculus [14] = assay: Toxicity in human FADU cells xenografted in NMRI nu/nu mouse assessed mortality at 100 mg/kg, po qd for 5 days; type: organism-based; design: dose 100 mg/kg, route oral; settings: in vivo, 120 h
[15] = Antiangiogenic activity in HUASMC assessed as inhibition of PDGF BB-induced cell proliferation by [3H]thymidine incorporation assay; type: functional; settings: Homo sapiens
[16] = molecular target: Cyclin-dependent kinase 2 (Homo sapiens, UniProt P24941); assay: Inhibition of human CDK2
HUVEC [17] = assay: Antiangiogenic activity in HUVEC assessed as inhibition of bFGF-induced cell proliferation by [3H]thymidine incorporation assay; type: functional, cell-based; settings: Homo sapiens
[18] = Trough plasma concentration in NMRI nu/nu mouse at 50 mg/kg, po after 24 hrs; type: ADME, organism-based; design: dose 50 mg/kg, route oral
FaDu [19] = assay: Antitumor activity against human FADU cells xenografted in NMRI nu/nu mouse assessed as tumor growth at 10 mg/kg, po qd for 5 days relative to control
FaDu [20] = assay: Antitumor activity against human FADU cells xenografted in NMRI nu/nu mouse assessed as tumor growth at 25 mg/kg, po qd for 5 days relative to control
[21] = Antiangiogenic activity in HSMEC assessed as inhibition of VEGF-induced apoptosis by [3H]thymidine incorporation assay; type: functional, Homo sapiens
FaDu [22] = assay: Antitumor activity against human FADU cells xenografted in NMRI nu/nu mouse assessed as inhibition of tumor growth at 50 mg/kg, po qd for 2 days relative to control; type: functional
FaDu [23] = assay: Antitumor activity against human FADU cells xenografted in NMRI nu/nu mouse assessed as tumor growth at 50 mg/kg, po qd for 5 days relative to control
Calu-6 = assay: Antiangiogenic activity in human Calu6 assessed as inhibition of cell proliferation by [3H]thymidine incorporation assay in presence of fetal calf serum; type: functional, cell-based
CAKI-1 [24] = assay: Antitumor activity against human Caki1 cells xenografted in NMRI nu/nu mouse assessed as tumor growth at 50 mg/kg, po qd for 5 days relative to control
[25] = Antiangiogenic activity in HSMEC assessed as inhibition of VEGF-induced cell proliferation by [3H]thymidine incorporation assay; type: functional; settings: Homo sapiens
HUVEC [26] = assay: Antiangiogenic activity in HUVEC assessed as inhibition of VEGF-induced apoptosis by [3H]thymidine incorporation assay; type: functional, cell-based; settings: Homo sapiens
FaDu [27] = assay: Antitumor activity against human FADU cells xenografted in NMRI nu/nu mouse assessed as tumor growth at 100 mg/kg, po qd for 5 days relative to control

## COC(=O)c1ccc2c(c1)NC(=O)/C2=C(\Nc1ccc(N(C)C(=O)CN2CCN(C)CC2)cc1)c1ccccc1 [NINTEDANIB]
HUVEC [1]
  Activity: 28%
[2]
  T/C: 30%
HeLa
  pEC50: < 5.46
FaDu [3]
  pEC50: < 5.35
[4]
  T/C: 45%
CAKI-1 [5]
  T/C: 71%
[6]
  concentration at 1 h: 1000 nM
FaDu [7]
  Activity: 64%
[8]
  pEC50: 7.10
CAKI-1 [9]
  T/C: 16%
[10]
  T/C: 74%
Mus musculus [11]
  Activity: Non-toxic
FaDu [12]
  Activity: 76%
HUVEC [13]
  pEC50: 8.05
Mus musculus [14]
  Activity: Non-toxic
[15]
  pEC50: 7.16
[16]
  pIC50: < 5.00
HUVEC [17]
  pEC50: 6.54
[18]
  concentration at 24 h: < 8 nM
FaDu [19]
  T/C: 82%
FaDu [20]
  T/C: 46%
[21]
  pEC50: > 8.00
FaDu [22]
  T/C: 15%
FaDu [23]
  T/C: 27%
Calu-6
  pEC50: < 5.46
CAKI-1 [24]
  T/C: 25%
[25]
  pEC50: 8.15
HUVEC [26]
  pEC50: > 8.00
FaDu [27]
  T/C: 11%
